Data reported in US20240397944A1, “METHODS FOR BIOFILM DISRUPTION” (Neolixir Limited, priority 2021, published 2024).
In brackets after ≈: the same amount, converted by molar mass.

Assays:
[1] = system: S. epidermidis biofilm; test: Crystal violet biofilm formation and mature biofilm assay; assay type: cell-based, Staphylococcus epidermidis; settings: added at t=0 (de novo forming) or t=24 hours (established), pH 7.0, FIG. 5
Description: (§1) After addition of treatments, all plates were then incubated for 24 hours at 37° C.
(§2) Following incubation at room temperature for 15 minutes the microtiter plates were washed 3-4 times with water by submerging in water, with blotting to rid the plate of all excess cells and dye. Plates were left to dry overnight. The CV stain was solubilised with 125 ul of 30% acetic acid and absorbance to indicate biofilm biomass quantified at 550 nm following an incubation of 15 minutes, normalised to vehicle only.

[2] = system: Pseudomonas aeruginosa biofilm; test: as above; assay type: cell-based; settings: added at t=0 (de novo forming) or t=24 hours (established), pH 7.0, FIG. 5
Description: as §1, §2

[3] = system: Staphylococcus aureus biofilm; test: as above; assay type: cell-based; settings: added at t=0 (de novo forming) or t=24 hours (established), pH 7.0, FIG. 5
Description: as §1, §2

[4] = Octanol-Water; cited from earlier work
[5] = cited from earlier work
[6] = rabbit; cited from earlier work
[7] = rat, 4 h; cited from earlier work
[8] = system: P. aeruginosa (ATCC 27853); test: Antimicrobial activity on planktonic bacteria, flow cytometry and broth microdilution; settings: for MIC: Pseudomonas aeruginosa, ATCC27853, read-out: minimum inhibitory concentration (MIC); for concentration at which first significant phenotypic change (decrease in SYTO 9 fluorescence) was observed: flow cytometry, 3 hours
Description: (§3) This was undertaken in parallel with a conventional broth microdilution (BMD) assay.
(§4) Two-fold serial dilutions of D- or L-lactate were performed in a 96-well plate, ranging from 0.008 grams per litre to 8 g/L with a volume of 50 μL per well.
(§5) The bacterial suspensions were prepared from cultures grown overnight in trypticase soya broth (TSB). Each culture was diluted 1:1000 in Hanks buffered saline solution (HBSS), stained with 1 μL of SYTO® 9, incubated for a minimum of 8 minutes with shaking, and enumerated by flow cytometry. The TSB cultures were then adjusted to 2×10^5 cells per mL in CAMHB.
(§6) To the replicate dilution series of lactic acids, 50 μL of bacterial suspension was added for a final volume of 100 μL per well, each row containing a concentration gradient ranging from 0.004 to 4 g/L. There were 3 organisms per plate (E. coli, P. aeruginosa, S. aureus), set up in duplicate. […] These wells were representative of the suspension density at the time of inoculation.
(§7) For conventional BMD, the incubation time was 24 hours. For flow cytometry, the incubation time was 3 hours. For flow cytometry, following incubation 100 μL of HBSS, containing SYTO® 9 at a concentration of 10 μM was added to each well of the plate for a final dye concentration of 5 μM. The plates were then incubated at ambient temperature in the dark for 10 minutes, loaded onto the Attune™ Autosampler, and the data acquired. The plates were run simultaneously on two different Attune™ cytometers.

[9] = system: S. aureus (ATCC 33592); test: as above; settings: for MIC: Staphylococcus aureus, ATCC33592, read-out: minimum inhibitory concentration (MIC); for concentration at which first significant phenotypic change (decrease in SYTO 9 fluorescence) was observed: flow cytometry, 3 hours
Description: as §3, §4, §5, §6, §7

[10] = system: P. aeruginosa clinical isolates from patients with cystic fibrosis; test: Crystal violet staining of biofilm microcolonies from clinical isolates; assay type: cell-based; settings: for Biofilm breakdown (% from baseline) / Isolates responsive to breakdown (% of isolates): 0.5-1.25 ug/ml, 24 hours
[11] = system: E. coli (ATCC 25922); test: Antimicrobial activity on planktonic bacteria, flow cytometry and broth microdilution; settings: for MIC: Escherichia coli, ATCC25922, read-out: minimum inhibitory concentration (MIC); for concentration at which first significant phenotypic change (decrease in SYTO 9 fluorescence) was observed: flow cytometry, 3 hours
Description: as §3, §4, §5, §6, §7

[12] = system: Pseudomonas aeruginosa (WACC91 and PA-001) biofilm; test: Crystal violet staining of biofilm-protected P. aeruginosa microcolonies; assay type: cell-based
Description: Laboratory strains of Pseudomonas aeruginosa (WACC91 and PA-001) were thawed (stored as 50% glycerol stocks at −70° C.+2° C.) and streaked out on blood agar plates. […] In this case cultures were propagated to stationary phase to induce stress responses needed to induce biofilm formation on seeding for treatment. […] Biofilm formation was complete approximately 24-48 hours following seeding, this was confirmed by a minimum of 1.8 absorbance units at 600 nm. Prebiotic solution collected from C1 was applied to B0 cultures that had achieved biofilm formation. A 10 dose dilution series of the prebiotic test solution in PMM was prepared (Table 2) to determine the optimal dose range for biofilm disruption of B0 cultures, with 50 μl total volume added to each B0 culture. […] The CV stain was solubilised with 125 ul of 30% acetic acid and absorbance to indicate biofilm density (also referred to as biofilm biomass) was quantified at 550 nm following an incubation of 15 minutes at room temperature. […] Biofilm formation was complete approximately 24-48 hours following seeding as confirmed by a minimum of 1.8 absorbance units at 600 nm. […] The CV stain was solubilised with 125 ul of 30% acetic acid and absorbance to indicate biofilm biomass quantified at 550 nm following an incubation of 15 minutes.

[13] = system: P. aeruginosa clinical isolates from patients with cystic fibrosis; test: Resazurin staining of biofilm microcolonies from clinical isolates; settings: for Altered metabolism with treatment (% of isolates) / Metabolism change (% from baseline): 0.5-1.25 ug/ml, 24 hours
Description: Cultures of interest were thawed and streaked out on blood agar plates and allowed to grow at 37° C., 5% CO2 for 12-24 hours until suitable growth was achieved to enable further culturing. An isolated colony was looped into 5 ml of LB broth and incubated overnight at 37° C., 5% CO2.
Stock cultures were diluted 1:1000 in 1% of appropriate media (LB for mucoid P. aeruginosa strains; M63 medium was used for P. aeruginosa rough strains 001-11R; PMM for all other strains) to achieve approximately 10^8 cfu/ml (confirmed by measuring 0.02 absorbance units, approximately 1.8 ul in 2 ml of media). Diluted working cultures were mixed well and seeded at 200 ul/well across a 96 well microtitre plate, with biofilm formation complete approximately 24-48 hours following seeding.
Treatments were completed in duplicate for all bacterial strains across the dose range used.
Viable cells reduce the blue resazurin dye to the pink-fluorescent resorufin form. Following incubation fluorescence was quantified by excitation wavelength of 540 nm and an emission wavelength of 590 nm using Enspire microplate reader.

[14] = system: Pseudomonas aeruginosa (WACC91) biofilm-protected microcolonies; test: Resazurin staining, bacterial metabolic activity of biofilm-protected cultures; assay type: cell-based
Description: Laboratory strains of Pseudomonas aeruginosa (WACC91 and PA-001) were thawed (stored as 50% glycerol stocks at −70° C.+2° C.) and streaked out on blood agar plates. […] In this case cultures were propagated to stationary phase to induce stress responses needed to induce biofilm formation on seeding for treatment.
Biofilm formation was complete approximately 24-48 hours following seeding, this was confirmed by a minimum of 1.8 absorbance units at 600 nm.
Prebiotic solution collected from C1 was applied to B0 cultures that had achieved biofilm formation. A 10 dose dilution series of the prebiotic test solution in PMM was prepared (Table 2) to determine the optimal dose range for biofilm disruption of B0 cultures, with 50 μl total volume added to each B0 culture.
A 12-fold serial dilution of tobramycin (99% pure tobramycin sulfate powder, Research Products International) standards were prepared in PMM (8 ng/ml-16 ug/ml), to act as a reference point for assessing biofilm disruption activity observed by the prebiotic test treatment (Table 2). Tobramycin is an antibiotic commonly used to treat chronic respiratory bacterial infections, particularly Pseudomonas aeruginosa. A total of 50 ul of tobramycin standards were added to B0 cultures that had achieved biofilm formation. […]

With `CC(O)C(=O)O` (racemic) [racemic mix (D/L), D/L lactic acid] the “biofilm mass (crystal violet) compared to baseline” value (“biofilm mass … compared to baseline” for short) [1] was “variable results”, the “biofilm mass … compared to baseline” value [2] was “variable results” and the “biofilm mass … compared to baseline” value [3] was “variable results”.
For `O=C(O)C(O)c1ccccc1` (stereo not drawn) [2-hydroxy-2-phenylacetic acid], the “Log P” value [4] is given as 0.67 and the Water solubility [5] is given as 1140 mM.
For `CCC(O)C(=O)O` (stereo not drawn) [2-hydroxybutanoic acid], the Water solubility [5] is given as 1930 mM.
In the case of `CCCCC(O)C(=O)O` (stereo not drawn) [2-hydroxyhexanoic acid], the Water solubility [5] is given as 270 mM.
In the case of `CCCC(O)C(=O)O` (stereo not drawn) [2-hydroxypentanoic acid], the Water solubility [5] is given as 1640 mM.
For `CC(O)C(=O)O` (stereo not drawn) [2-hydroxypropanoic acid], the “LD50 Dermal” value [6] is listed as >2000 mg/kg (rabbit) and the “LC50 Inhalation” value [7] is listed as >7.94 mg/L (rat) 4 h.
With `C[C@@H](O)C(=O)O` [D-lactic acid, (2R)-2-hydroxypropanoic acid] the MIC [8] was 4000 µg/mL (≈ 44.4 mM), the “concentration at which first significant phenotypic change (decrease in SYTO 9 fluorescence) was observed” value [8] was 1 g/L and the MIC [9] was 4000 µg/mL (≈ 44.4 mM). The “concentration at which first significant phenotypic change (decrease in SYTO 9 fluorescence) was observed” value [9] was 1 g/L, the “Biofilm breakdown (% from baseline)” value ([10]; Mucoid isolates) was 17.2 % from baseline and the “Isolates responsive to breakdown (% of isolates)” value ([10]; Mucoid isolates) was 60 % of isolates. The “Biofilm breakdown (% from baseline)” value ([10]; Non-mucoid isolates) was 23 % from baseline, the “Isolates responsive to breakdown (% of isolates)” value ([10]; Non-mucoid isolates) was 53.8 % of isolates and the “share of all strains showing evidence of biofilm disruption” value ([10]; all strains tested) was “Greater than 50%”. The MIC [11] was 4000 µg/mL (≈ 44.4 mM), the “concentration at which first significant phenotypic change (decrease in SYTO 9 fluorescence) was observed” value [11] was 1 g/L and the “active dose range for biofilm disruption” value ([12]; pure grade standards run against prebiotic test solution dilutions, methods of Example 1) was 0.25 to 1.25 mg/mL. The “Altered metabolism with treatment (% of isolates)” value ([13]; Mucoid isolates) was 75 % of isolates, the “Metabolism change (% from baseline)” value ([13]; Mucoid isolates) was 37 % from baseline and the “Altered metabolism with treatment (% of isolates)” value ([13]; Non-mucoid isolates) was 69.2 % of isolates. For the same compound, the “Metabolism change (% from baseline)” value ([13]; Non-mucoid isolates) was 46.1 % from baseline and the “share of all strains tested showing a change in metabolic activity” value ([13]; all strains tested) was “More than 65%”.
In the case of `C[C@H](O)C(=O)O` [L-lactic acid, reference compound], the MIC [8] is reported as 4000 µg/mL (≈ 44.4 mM), the “concentration at which first significant phenotypic change (decrease in SYTO 9 fluorescence) was observed” value [8] is reported as 1 g/L and the MIC [9] is reported as 4000 µg/mL (≈ 44.4 mM). For the same compound, the “concentration at which first significant phenotypic change (decrease in SYTO 9 fluorescence) was observed” value [9] was 1 g/L, the “biofilm mass … compared to baseline” value [1] was “not” and the “biofilm mass … compared to baseline” value [2] was “not”. For the same compound, the “biofilm mass … compared to baseline” value [3] was “not”, the MIC [11] was 4000 µg/mL (≈ 44.4 mM) and the “concentration at which first significant phenotypic change (decrease in SYTO 9 fluorescence) was observed” value [11] was 1 g/L.
For `NC[C@H]1O[C@H](O[C@H]2[C@H](O)[C@@H](O[C@H]3O[C@H](CO)[C@@H](O)[C@H](N)[C@H]3O)[C@H](N)C[C@@H]2N)[C@H](N)C[C@@H]1O` [tobramycin], the “concentrations at which reduced metabolic activity was observed” value ([14]; WACC91, 24 hrs treatment, supernatants) was 1 to 16 µg/mL, the “inhibition of metabolic activity relative to prebiotic test solution (90%)” value ([14]; bioactive dose 16 ug/ml) was “comparable” and the reduced biofilm density ([12]; tobramycin 16 ug/ml, bioactive dose) was 80-90%.
